Results as given in ChEMBL document CHEMBL5154929, “Optimization of the Natural Product Calothrixin A to Discover Novel Dual Topoisomerase I and II Inhibitors with Improved Anticancer Activity” (J Med Chem, 2022).
pIC50: −log10 of the molar value. The source made the active and inactive calls. No cut-off for these calls is given here.

Columns and labels:
[1] = tested on: A-375; assay: Cytotoxicity against human A-375 cells expressing high level of topoisomerase I/II measured after 72 hrs by MTT assay; assay type: functional, cell-based; details: A-375, 72 h
[2] = Cytotoxicity against human L02 cells measured after 72 hrs by MTT assay; assay type: toxicity, cell-based
[3] = Cytotoxicity against human HEK293T cells measured after 72 hrs by MTT assay; assay type: toxicity, cell-based, HEK-293T
[4] = target: T1, DNA topoisomerase 1 (Homo sapiens) (UniProt P11387); assay: Inhibition of DNA topoisomerase I (unknown origin) relaxation activity at 100 uM incubated for 30 mins by chemiDoc system
T1 sequence (whole entry): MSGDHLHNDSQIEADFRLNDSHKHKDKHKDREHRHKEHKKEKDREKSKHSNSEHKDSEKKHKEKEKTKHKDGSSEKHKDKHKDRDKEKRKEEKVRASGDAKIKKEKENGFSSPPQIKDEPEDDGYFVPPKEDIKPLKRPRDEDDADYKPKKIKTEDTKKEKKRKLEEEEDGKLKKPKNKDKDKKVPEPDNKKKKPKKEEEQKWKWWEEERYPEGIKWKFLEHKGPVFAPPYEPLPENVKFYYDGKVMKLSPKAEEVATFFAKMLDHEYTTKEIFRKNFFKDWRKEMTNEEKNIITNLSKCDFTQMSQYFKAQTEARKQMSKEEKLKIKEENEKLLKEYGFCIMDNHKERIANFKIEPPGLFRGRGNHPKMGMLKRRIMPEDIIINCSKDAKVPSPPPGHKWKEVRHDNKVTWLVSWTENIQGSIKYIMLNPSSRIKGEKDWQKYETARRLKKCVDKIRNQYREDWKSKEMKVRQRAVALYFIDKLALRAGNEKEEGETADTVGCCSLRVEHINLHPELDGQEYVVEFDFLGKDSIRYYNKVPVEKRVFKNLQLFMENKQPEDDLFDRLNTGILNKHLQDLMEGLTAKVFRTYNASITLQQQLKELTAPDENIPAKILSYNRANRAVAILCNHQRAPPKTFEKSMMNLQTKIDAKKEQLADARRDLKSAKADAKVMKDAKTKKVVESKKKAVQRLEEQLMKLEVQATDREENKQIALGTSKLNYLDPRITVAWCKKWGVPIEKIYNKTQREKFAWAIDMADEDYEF

[5] = tested on: MDA-MB-231; assay: Cytotoxicity against human MDA-MB-231 cells expressing high level of topoisomerase I/II measured after 72 hrs by MTT assay; assay type: functional, cell-based; details: MDA-MB-231, 72 h
[6] = tested on: SH-SY5Y; assay: Cytotoxicity against human SH-SY5Y cells expressing low level of topoisomerase I/II measured after 72 hrs by MTT assay; assay type: functional, cell-based
[7] = tested on: A549; assay: Cytotoxicity against human A549 cells expressing high level of topoisomerase I/II measured after 72 hrs by MTT assay; assay type: functional, cell-based; details: A549, 72 h
[8] = tested on: HCT-116; assay: Cytotoxicity against human HCT-116 cells expressing high level of topoisomerase I/II measured after 72 hrs by MTT assay; assay type: functional, cell-based; details: HCT-116, 72 h
[9] = tested on: MCF7; assay: Cytotoxicity against human MCF7 cells expressing high level of topoisomerase I/II measured after 72 hrs by MTT assay; assay type: functional, cell-based; details: MCF7, 72 h
[10] = Aqueous solubility of the compound in saline equilibrating for 24 hrs by HPLC analysis; assay type: physicochemical
[11] = tested on: HCT-116; assay: Antiproliferative activity against doxorubicin sensitive human HCT-116 cells measured after 72 hrs by MTT assay; assay type: functional, cell-based; details: HCT-116, 72 h
[12] = tested on: A-375; assay: Induction of cell cycle arrest in human A-375 cells assessed as accumulation of cells at S phase at 80 nM incubated for 24 hrs by PI based flow cytometric analysis (RVB = 26.73%); assay type: functional
[13] = tested on: A-375; assay: Induction of cell cycle arrest in human A-375 cells assessed as accumulation of cells at G1 phase at 80 nM incubated for 24 hrs by PI based flow cytometric analysis (RVB = 52.94%); assay type: functional
[14] = tested on: A-375; assay: Induction of cell cycle arrest in human A-375 cells assessed as accumulation of cells at G2 phase at 80 nM incubated for 24 hrs by PI based flow cytometric analysis (RVB = 20.34%); assay type: functional
[15] = tested on: HCT-116; assay: Antiproliferative activity against doxorubicin resistant human HCT-116 cells measured after 72 hrs by MTT assay; assay type: functional, cell-based; details: HCT-116, 72 h
[16] = target: DNA topoisomerase 2-alpha (Homo sapiens) (UniProt P11388); assay: Poison activity at human topoisomerase II-alpha assessed as stabilization of enzyme-DNA cleavage complex by measuring nicked DNA formation at 100 uM after 60 mins by agarose gel electrophoresis method
[17] = target: DNA topoisomerase 2-alpha (Homo sapiens) (UniProt P11388); assay: Inhibition of human DNA topoisomerase II-alpha relaxation activity at 100 uM incubated for 30 mins by chemiDoc system

Sequence of DNA topoisomerase 2-alpha (Homo sapiens) (P11388 whole entry): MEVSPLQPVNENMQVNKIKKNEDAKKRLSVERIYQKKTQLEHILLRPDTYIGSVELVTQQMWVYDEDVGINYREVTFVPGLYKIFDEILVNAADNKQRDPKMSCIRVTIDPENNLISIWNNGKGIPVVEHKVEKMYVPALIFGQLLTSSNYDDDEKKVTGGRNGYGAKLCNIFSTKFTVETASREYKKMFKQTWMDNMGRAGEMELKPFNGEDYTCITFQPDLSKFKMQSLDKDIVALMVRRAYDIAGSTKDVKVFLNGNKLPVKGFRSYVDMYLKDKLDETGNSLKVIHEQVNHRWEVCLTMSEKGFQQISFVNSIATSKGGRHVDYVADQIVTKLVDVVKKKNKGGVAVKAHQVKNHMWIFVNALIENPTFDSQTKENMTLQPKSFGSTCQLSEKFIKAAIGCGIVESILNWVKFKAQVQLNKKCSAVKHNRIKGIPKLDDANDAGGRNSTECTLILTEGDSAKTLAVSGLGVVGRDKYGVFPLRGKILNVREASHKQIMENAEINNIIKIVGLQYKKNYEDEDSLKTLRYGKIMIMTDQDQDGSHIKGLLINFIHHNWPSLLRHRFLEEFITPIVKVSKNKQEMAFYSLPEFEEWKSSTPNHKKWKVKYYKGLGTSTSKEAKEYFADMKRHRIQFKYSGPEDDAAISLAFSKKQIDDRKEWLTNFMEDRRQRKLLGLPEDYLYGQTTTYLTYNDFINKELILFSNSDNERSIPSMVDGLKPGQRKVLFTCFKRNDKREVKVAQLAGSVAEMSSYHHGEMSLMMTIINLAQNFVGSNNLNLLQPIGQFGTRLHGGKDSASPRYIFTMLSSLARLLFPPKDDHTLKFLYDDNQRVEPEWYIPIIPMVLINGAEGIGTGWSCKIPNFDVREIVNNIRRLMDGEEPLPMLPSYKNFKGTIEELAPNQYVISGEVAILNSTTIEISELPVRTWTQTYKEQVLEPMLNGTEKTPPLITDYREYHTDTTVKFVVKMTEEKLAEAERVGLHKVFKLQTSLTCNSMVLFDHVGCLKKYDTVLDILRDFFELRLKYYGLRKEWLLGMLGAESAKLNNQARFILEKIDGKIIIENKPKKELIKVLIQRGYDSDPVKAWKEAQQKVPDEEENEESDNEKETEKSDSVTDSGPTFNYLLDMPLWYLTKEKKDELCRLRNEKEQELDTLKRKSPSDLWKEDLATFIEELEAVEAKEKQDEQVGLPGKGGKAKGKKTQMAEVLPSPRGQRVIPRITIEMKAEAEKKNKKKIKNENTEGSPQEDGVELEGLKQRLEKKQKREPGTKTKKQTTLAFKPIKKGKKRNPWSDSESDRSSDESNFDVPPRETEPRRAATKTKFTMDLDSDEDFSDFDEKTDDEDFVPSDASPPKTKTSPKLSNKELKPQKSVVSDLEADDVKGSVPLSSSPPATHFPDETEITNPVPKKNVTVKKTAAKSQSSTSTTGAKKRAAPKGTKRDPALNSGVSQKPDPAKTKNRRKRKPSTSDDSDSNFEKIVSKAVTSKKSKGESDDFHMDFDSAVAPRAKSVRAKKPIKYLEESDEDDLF

SMILES | pIC50 [1] | IC50 at 72 h [2] [nM] | IC50 at 72 h [3] [nM] | inhibition [4] | pIC50 [5] | pIC50 [6] | pIC50 [7] | pIC50 [8] | pIC50 [9] | solubility at 24 h [10] [µg/mL] | pIC50 [11] | Activity [12] [%] | Activity [13] [%] | Activity [14] [%] | pIC50 [15] | Activity [16] | inhibition [17]
CN(C)CCCCn1c2c(c3ccccc31)C(=O)c1c[n+]([O-])c3ccccc3c1C2=O | 6.33 | 300 | 520 | Active | 6.46 | 6.60 | 6.51 | 6.35 | 6.66 | – | – | – | – | – | – | – | –
O=C1c2c[n+]([O-])c3ccccc3c2C(=O)c2[nH]c3ccccc3c21 [CALOTHRIXIN A] | 6.18 | 400 | 890 | Active | 6.32 | 5.86 | 6.49 | 6.21 | 6.27 | < 5 | 6.19 | 33.26 | 56.28 | 10.46 | 6.09 | – | –
CN1CCN(CCCCCn2c3c(c4ccccc42)C(=O)c2c[n+]([O-])c4ccccc4c2C3=O)CC1 | 5.77 | 1640 | – | Active | 5.64 | 6.08 | 6.06 | 5.91 | 5.90 | – | – | – | – | – | – | – | –
COc1cccc2c1C(=O)c1c(O)c3c(c(O)c1C2=O)C[C@@](O)(C(=O)CO)C[C@@H]3O[C@H]1C[C@H](N)[C@H](O)[C@H](C)O1 [DOXORUBICIN] | 6.59 | – | – | – | 6.09 | 6.10 | – | 6.47 | – | – | 6.54 | – | – | – | 5.69 | – | –
O=C1c2c[n+]([O-])c3ccccc3c2C(=O)c2c1c1ccccc1n2CCCCN1CCNCC1 | 6.34 | 1380 | 760 | Active | 5.48 | 5.91 | 6.27 | 6.15 | 4.92 | – | – | – | – | – | – | – | –
CN1CCN(CCCCn2c3c(c4ccccc42)C(=O)c2c[n+]([O-])c4ccccc4c2C3=O)CC1 | 7.52 | 80 | 100 | Active | 6.96 | 7.00 | 7.05 | 8.00 | 7.00 | – | – | – | – | – | – | Active | Active
O=C1c2c[n+]([O-])c3ccccc3c2C(=O)c2c1c1ccccc1n2Cc1cn([C@H]2C[C@H](O)[C@@H](CO)O2)nn1 | 6.41 | 280 | 3600 | – | 6.24 | 6.21 | 6.46 | 6.92 | 6.28 | > 5000 | – | – | – | – | – | – | –
CC1(C)OC[C@@H](Cn2cc(Cn3c4c(c5ccccc53)C(=O)c3c[n+]([O-])c5ccccc5c3C4=O)nn2)O1 | 6.35 | 2900 | 6020 | – | < 6.00 | < 6.00 | 5.33 | 6.47 | < 6.00 | – | – | – | – | – | – | – | –
CN1CCN(CCCn2c3c(c4ccccc42)C(=O)c2c[n+]([O-])c4ccccc4c2C3=O)CC1 | 6.33 | 230 | 170 | – | 6.41 | 6.25 | 6.85 | 6.25 | 6.66 | – | – | – | – | – | – | – | –
CC(=O)OC[C@H]1O[C@@H](n2cc(Cn3c4c(c5ccccc53)C(=O)c3c[n+]([O-])c5ccccc5c3C4=O)nn2)[C@H](OC(C)=O)[C@@H](OC(C)=O)[C@@H]1OC(C)=O | 6.25 | 270 | 2430 | – | 6.40 | 6.19 | 6.54 | 6.12 | 6.48 | – | – | – | – | – | – | – | –
